Reference: ChEMBL document CHEMBL1129008, “Novel 1, 2, 4-oxadiazoles as potent and selective histamine H3 receptor antagonists” (Bioorg Med Chem Lett, 1996)

Assays:
Histamine H3 receptor = Histamine H3 receptor (Rattus norvegicus, UniProt Q9QYN8); assay: Binding affinity against H3 receptor in rat cerebral cortex membranes was evaluated using [3H]N-methyl-histamine as radioligand; format: cell membranes, Membrane
[1] = molecular target: Histamine H3 receptor (Cavia porcellus) (UniProt Q9JI35); assay: Antagonistic activity at H3 receptor was assessed on guinea-pig longitudinal muscle strips subjected to electrical field stimulation; format: functional
Sequence of Histamine H3 receptor (Cavia porcellus) (Q9JI35 whole entry): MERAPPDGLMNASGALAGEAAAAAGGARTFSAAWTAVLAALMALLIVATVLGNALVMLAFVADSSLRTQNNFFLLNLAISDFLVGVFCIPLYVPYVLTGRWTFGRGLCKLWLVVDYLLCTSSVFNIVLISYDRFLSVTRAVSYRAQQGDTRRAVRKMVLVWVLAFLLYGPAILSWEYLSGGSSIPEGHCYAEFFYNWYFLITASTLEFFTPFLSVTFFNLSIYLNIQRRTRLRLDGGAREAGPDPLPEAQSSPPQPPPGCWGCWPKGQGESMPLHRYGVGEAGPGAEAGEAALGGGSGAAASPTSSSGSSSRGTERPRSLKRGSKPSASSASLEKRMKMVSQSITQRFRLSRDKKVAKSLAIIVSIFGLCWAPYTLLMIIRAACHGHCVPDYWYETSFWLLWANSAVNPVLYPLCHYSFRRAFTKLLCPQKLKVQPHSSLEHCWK

[2] = molecular target: Histamine H2 receptor (Cavia porcellus) (UniProt P47747); assay: Antagonistic activity at H2 receptor was assessed against histamine-induced tachycardia in guinea pig isolated atria; format: functional
Sequence of Histamine H2 receptor (Cavia porcellus) (P47747 whole entry): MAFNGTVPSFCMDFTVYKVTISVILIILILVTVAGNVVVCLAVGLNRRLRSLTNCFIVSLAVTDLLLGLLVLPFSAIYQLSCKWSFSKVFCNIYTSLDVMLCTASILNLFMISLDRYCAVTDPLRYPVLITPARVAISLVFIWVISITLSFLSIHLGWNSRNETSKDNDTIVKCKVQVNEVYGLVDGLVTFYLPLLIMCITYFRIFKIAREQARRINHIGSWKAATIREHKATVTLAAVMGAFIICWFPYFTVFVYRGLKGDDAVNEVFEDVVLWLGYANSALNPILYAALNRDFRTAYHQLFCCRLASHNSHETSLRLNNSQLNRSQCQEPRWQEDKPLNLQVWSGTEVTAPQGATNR

Rattus norvegicus [3] = assay: Compound was tested in vivo for (R)-alpha- methyl-histamine induced dipsogenicity in rats, upon subcutaneous administration; format: functional; conditions: sc
Rattus norvegicus [4] = assay: Antagonism of ex vivo binding to rat cortex/hippocampus was determined using [3H]-N-alpha-Methylhistamine, after subcutaneous administration; format: functional; conditions: sc
Rattus norvegicus [5] = assay: Antagonism of ex vivo binding to rat cortex/hippocampus was determined using [3H]-N-alpha-Methylhistamine, after peroral administration; format: functional; conditions: po
[6] = molecular target: Histamine H1 receptor (Cavia porcellus) (UniProt P31389); assay: Antagonistic activity against H1 receptor was determined in histamine induced contractions of guinea pig isolated whole ileum; format: functional, tissue-based
Sequence of Histamine H1 receptor (Cavia porcellus) (P31389 whole entry): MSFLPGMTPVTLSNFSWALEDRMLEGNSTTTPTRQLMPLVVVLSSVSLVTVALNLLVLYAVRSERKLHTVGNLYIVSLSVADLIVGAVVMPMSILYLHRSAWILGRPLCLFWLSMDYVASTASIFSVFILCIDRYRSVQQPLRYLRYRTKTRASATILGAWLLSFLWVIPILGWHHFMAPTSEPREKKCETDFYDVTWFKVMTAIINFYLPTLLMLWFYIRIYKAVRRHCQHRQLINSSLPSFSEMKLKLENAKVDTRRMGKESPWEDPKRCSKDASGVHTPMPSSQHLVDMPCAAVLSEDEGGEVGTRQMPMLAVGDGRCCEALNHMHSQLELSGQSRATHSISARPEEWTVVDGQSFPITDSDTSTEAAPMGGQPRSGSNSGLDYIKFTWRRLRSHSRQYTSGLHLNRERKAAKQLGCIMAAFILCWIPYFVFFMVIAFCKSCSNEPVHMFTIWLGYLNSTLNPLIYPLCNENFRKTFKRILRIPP

Rattus norvegicus [7] = assay: Compound was tested in vivo for (R)-alpha- methyl-histamine induced dipsogenicity in rats, upon peroral administration; format: functional; conditions: po

Sequence of Histamine H3 receptor (Q9QYN8 whole entry): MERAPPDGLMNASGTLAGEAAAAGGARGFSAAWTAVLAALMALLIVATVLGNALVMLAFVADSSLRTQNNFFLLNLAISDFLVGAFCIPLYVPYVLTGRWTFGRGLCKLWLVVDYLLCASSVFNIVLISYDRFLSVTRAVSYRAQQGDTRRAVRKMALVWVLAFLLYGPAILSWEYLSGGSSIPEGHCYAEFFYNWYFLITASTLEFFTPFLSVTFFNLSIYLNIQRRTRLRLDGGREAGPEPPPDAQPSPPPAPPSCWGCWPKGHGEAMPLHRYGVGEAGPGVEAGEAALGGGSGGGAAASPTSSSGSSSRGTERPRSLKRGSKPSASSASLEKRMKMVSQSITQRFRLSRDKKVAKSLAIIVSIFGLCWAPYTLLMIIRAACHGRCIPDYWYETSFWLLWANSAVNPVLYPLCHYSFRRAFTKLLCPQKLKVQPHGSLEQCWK

Clc1ccc(Cc2nnc(CCc3c[nH]cn3)s2)cc1
Ki (Histamine H3 receptor): 100 nM
pKB [1]: 7
pKB [2]: 5.8

FC(F)(F)c1ccc(Cc2noc(CCc3c[nH]cn3)n2)cc1
Ki (Histamine H3 receptor): 7.94 nM
pKB [1]: 8.3

CSc1ccc(Cc2noc(CCc3c[nH]cn3)n2)cc1
Ki (Histamine H3 receptor): 25.1 nM

Clc1ccc(Cc2noc(CCc3c[nH]cn3)n2)cc1 [GR-175737]
ED50 (Rattus norvegicus [3]): 1 mg/kg
ED50 (Rattus norvegicus [4]): 1.4 mg/kg
ED50 (Rattus norvegicus [5]): 1.2 mg/kg

Clc1ccc(CCc2noc(Cc3c[nH]cn3)n2)cc1
Ki (Histamine H3 receptor): 251 nM

Clc1ccc(Cc2csc(CCc3c[nH]cn3)n2)cc1
Ki (Histamine H3 receptor): 200 nM
pKB [1]: 7.3

N=C(NCc1ccc(Cl)cc1)SCCCc1c[nH]cn1 [CLOBENPROPIT]
pKB [6]: < 6
ED50 (Rattus norvegicus [3]): 1.3 mg/kg
pKB [1]: 9.9
ED50 (Rattus norvegicus [4]): 10.5 mg/kg
pKB [2]: < 6
ED50 (Rattus norvegicus [7]): 2.4 mg/kg
ED50 (Rattus norvegicus [5]): > 30 mg/kg

c1ccc(-c2ccc(Cc3noc(CCc4c[nH]cn4)n3)cc2)cc1
Ki (Histamine H3 receptor): 63.1 nM
pKB [1]: 6.6

Clc1ccc(Cc2n[nH]c(CCCc3c[nH]cn3)n2)cc1
pKB [6]: < 5
Ki (Histamine H3 receptor): 12.6 nM
pKB [1]: 7.4
pKB [2]: < 5

Clc1ccc(Cc2noc(CCCc3cnc[nH]3)n2)cc1
Ki (Histamine H3 receptor): 25.1 nM

Clc1ccc(Cc2noc(CCc3c[nH]cn3)n2)cc1Cl
Ki (Histamine H3 receptor): 3.16 nM
pKB [1]: 8

CS(=O)(=O)Nc1ccc(Cc2noc(CCc3c[nH]cn3)n2)cc1
Ki (Histamine H3 receptor): 1260 nM

COc1ccc(Cc2noc(CCc3c[nH]cn3)n2)cc1
Ki (Histamine H3 receptor): 39.8 nM
pKB [1]: 6.5

Clc1ccc(CCc2noc(CCc3c[nH]cn3)n2)cc1
pKB [6]: < 5
Ki (Histamine H3 receptor): 20 nM
pKB [1]: 7.7
pKB [2]: < 5

S=C(NC1CCCCC1)N1CCC(c2cnc[nH]2)CC1 [THIOPERAMIDE]
pKB [6]: < 5
ED50 (Rattus norvegicus [3]): 0.8 mg/kg
pKB [1]: 8.3
ED50 (Rattus norvegicus [4]): 5.1 mg/kg
pKB [2]: < 5
ED50 (Rattus norvegicus [7]): 0.8 mg/kg
ED50 (Rattus norvegicus [5]): 6 mg/kg

Clc1ccc(Cc2n[nH]c(CCc3c[nH]cn3)n2)cc1
Ki (Histamine H3 receptor): 200 nM
pKB [1]: 5.7

CS(=O)(=O)c1ccc(Cc2noc(CCc3c[nH]cn3)n2)cc1
Ki (Histamine H3 receptor): 316 nM

Cn1nc(CCc2c[nH]cn2)nc1Cc1ccc(Cl)cc1
Ki (Histamine H3 receptor): 126 nM
pKB [1]: 5.8

Ic1ccc(Cc2noc(CCc3c[nH]cn3)n2)cc1
Ki (Histamine H3 receptor): 6.31 nM
pKB [1]: 7.1

Clc1ccc(Cc2noc(Cc3c[nH]cn3)n2)cc1
Ki (Histamine H3 receptor): 25.1 nM
pKB [1]: 7.2

Clc1ccc(Cc2noc(CCCc3c[nH]cn3)n2)cc1
pKB [6]: < 5
pKB [1]: 6.8
pKB [2]: < 5

C[S+]([O-])c1ccc(Cc2noc(CCc3c[nH]cn3)n2)cc1 (stereo not given)
Ki (Histamine H3 receptor): 2510 nM

Clc1ccc(Cc2nc(CCc3c[nH]cn3)no2)cc1
Ki (Histamine H3 receptor): 20 nM
pKB [1]: 7
pKB [2]: 5.6

Fc1ccc(Cc2noc(CCc3c[nH]cn3)n2)cc1
Ki (Histamine H3 receptor): 10 nM
pKB [1]: 8.4
